In US9790216B2, “3-substituted cyclopentylamine derivatives” (Merck Patent GmbH, priority 2013, dated 2017) one finds IC50 data, which are given here for two compounds.

For this test, the target named is T1, human fatty acid synthase FASN (Homo sapiens, UniProt P49327).
T1 construct: human recombinant full-length fatty acid synthase; made in house; host or cells: SF9 cells
As to the kind of experiment: Biochemical activity testing of human fatty acid synthase FASN (NADPH fluorescence intensity enzyme assay). Conditions: human recombinant full-length FASN, inhibition. The text has this:
• GST=Glutathione-S-transferase • FRET=Fluorescence resonance energy transfer • HTRF®=(homogenous time resolved fluorescence) • HEPES=4-(2-hydroxyethyl)-1-piperazine ethanesulfonic acid buffer • DTT=Dithiothreitol • BSA=bovine serum albumin • CHAPS=detergent; • CHAPS=3-[(3-cholamidopropyl)dimethylammonio]-1-propanesulfonate Biochemical Activity Testing of Human Fatty Acid Synthase FASN
Fatty acid synthase FASN is a multifunctional enzyme with seven catalytic activities thereby synthesising long chain fatty acids especially palmitoyl-CoA in the presence of co-factor NADPH starting from the substrates acetyl-CoA and malonyl-CoA. The reductive synthesis is realized by the oxidation of NADPH to NADP. Since NADPH has a high fluorescence intensity quantum yield compared to NADP with excitation at 340 nm and emission at 460 nm, the reaction can be monitored via the decrease in fluorescence intensity. The biochemical FASN activity testing was performed as 384 well two-time-point kinetic fluorescence intensity assay format in Greiner low volume medium binding 384-well black microtiter plates in a total assay volume of 8 μl and was used for high throughput screen. In each well 3 μl 40 nM human recombinant full-length fatty acid synthase (produced in-house in SF9 cells) were dispensed in the following assay buffer: 50 mM potassium phosphate buffer pH 7.0, 0.005% (w/v) BSA, 2 mM Glutathione, 0.02% Tween-20. Then 2 μl of 200 μM NADPH in assay buffer were added, followed by the addition of the test compounds in 10 dilution concentrations starting with 30 μM (final concentration) to get a final DMSO content of 1% (v/v). The mixture was incubated for at least 15 min at room temperature. After the pre-incubation the enzymatic reaction was started by the addition of 2 μl substrate solution (80 μM acetyl-CoA, 240 μM malonyl-CoA). A first fluorescence intensity measurement (time point one) was performed with an Envision multimode reader (Perkin Elmer LAS Germany GmbH) at excitation wavelength 340 nm (lamp mode) and emission wavelength 460 nm. The reaction was incubated for 30 minutes at room temperature. After this the fluorescence intensity was measured again in the Envision using the same parameters as described above (second time point measurement). The data were analysed by subtracting the first time point measurement value from the second time point measurement value (after the enzymatic reaction). The differences of the emission signals were determined. These reflect directly the conversion rate of NADPH. The full value used was the inhibitor-free reaction. A pharmacological zero value was used like GSK837149A (Sigma-Aldrich) in a final concentration of 5-10 μM. The inhibitory values (IC50) were determined using either the program Symyx Assay Explorer® or Condosseo® from GeneData.

The term IC50 denotes the concentration that gives 50% inhibition.

T1 sequence (P49327 whole entry): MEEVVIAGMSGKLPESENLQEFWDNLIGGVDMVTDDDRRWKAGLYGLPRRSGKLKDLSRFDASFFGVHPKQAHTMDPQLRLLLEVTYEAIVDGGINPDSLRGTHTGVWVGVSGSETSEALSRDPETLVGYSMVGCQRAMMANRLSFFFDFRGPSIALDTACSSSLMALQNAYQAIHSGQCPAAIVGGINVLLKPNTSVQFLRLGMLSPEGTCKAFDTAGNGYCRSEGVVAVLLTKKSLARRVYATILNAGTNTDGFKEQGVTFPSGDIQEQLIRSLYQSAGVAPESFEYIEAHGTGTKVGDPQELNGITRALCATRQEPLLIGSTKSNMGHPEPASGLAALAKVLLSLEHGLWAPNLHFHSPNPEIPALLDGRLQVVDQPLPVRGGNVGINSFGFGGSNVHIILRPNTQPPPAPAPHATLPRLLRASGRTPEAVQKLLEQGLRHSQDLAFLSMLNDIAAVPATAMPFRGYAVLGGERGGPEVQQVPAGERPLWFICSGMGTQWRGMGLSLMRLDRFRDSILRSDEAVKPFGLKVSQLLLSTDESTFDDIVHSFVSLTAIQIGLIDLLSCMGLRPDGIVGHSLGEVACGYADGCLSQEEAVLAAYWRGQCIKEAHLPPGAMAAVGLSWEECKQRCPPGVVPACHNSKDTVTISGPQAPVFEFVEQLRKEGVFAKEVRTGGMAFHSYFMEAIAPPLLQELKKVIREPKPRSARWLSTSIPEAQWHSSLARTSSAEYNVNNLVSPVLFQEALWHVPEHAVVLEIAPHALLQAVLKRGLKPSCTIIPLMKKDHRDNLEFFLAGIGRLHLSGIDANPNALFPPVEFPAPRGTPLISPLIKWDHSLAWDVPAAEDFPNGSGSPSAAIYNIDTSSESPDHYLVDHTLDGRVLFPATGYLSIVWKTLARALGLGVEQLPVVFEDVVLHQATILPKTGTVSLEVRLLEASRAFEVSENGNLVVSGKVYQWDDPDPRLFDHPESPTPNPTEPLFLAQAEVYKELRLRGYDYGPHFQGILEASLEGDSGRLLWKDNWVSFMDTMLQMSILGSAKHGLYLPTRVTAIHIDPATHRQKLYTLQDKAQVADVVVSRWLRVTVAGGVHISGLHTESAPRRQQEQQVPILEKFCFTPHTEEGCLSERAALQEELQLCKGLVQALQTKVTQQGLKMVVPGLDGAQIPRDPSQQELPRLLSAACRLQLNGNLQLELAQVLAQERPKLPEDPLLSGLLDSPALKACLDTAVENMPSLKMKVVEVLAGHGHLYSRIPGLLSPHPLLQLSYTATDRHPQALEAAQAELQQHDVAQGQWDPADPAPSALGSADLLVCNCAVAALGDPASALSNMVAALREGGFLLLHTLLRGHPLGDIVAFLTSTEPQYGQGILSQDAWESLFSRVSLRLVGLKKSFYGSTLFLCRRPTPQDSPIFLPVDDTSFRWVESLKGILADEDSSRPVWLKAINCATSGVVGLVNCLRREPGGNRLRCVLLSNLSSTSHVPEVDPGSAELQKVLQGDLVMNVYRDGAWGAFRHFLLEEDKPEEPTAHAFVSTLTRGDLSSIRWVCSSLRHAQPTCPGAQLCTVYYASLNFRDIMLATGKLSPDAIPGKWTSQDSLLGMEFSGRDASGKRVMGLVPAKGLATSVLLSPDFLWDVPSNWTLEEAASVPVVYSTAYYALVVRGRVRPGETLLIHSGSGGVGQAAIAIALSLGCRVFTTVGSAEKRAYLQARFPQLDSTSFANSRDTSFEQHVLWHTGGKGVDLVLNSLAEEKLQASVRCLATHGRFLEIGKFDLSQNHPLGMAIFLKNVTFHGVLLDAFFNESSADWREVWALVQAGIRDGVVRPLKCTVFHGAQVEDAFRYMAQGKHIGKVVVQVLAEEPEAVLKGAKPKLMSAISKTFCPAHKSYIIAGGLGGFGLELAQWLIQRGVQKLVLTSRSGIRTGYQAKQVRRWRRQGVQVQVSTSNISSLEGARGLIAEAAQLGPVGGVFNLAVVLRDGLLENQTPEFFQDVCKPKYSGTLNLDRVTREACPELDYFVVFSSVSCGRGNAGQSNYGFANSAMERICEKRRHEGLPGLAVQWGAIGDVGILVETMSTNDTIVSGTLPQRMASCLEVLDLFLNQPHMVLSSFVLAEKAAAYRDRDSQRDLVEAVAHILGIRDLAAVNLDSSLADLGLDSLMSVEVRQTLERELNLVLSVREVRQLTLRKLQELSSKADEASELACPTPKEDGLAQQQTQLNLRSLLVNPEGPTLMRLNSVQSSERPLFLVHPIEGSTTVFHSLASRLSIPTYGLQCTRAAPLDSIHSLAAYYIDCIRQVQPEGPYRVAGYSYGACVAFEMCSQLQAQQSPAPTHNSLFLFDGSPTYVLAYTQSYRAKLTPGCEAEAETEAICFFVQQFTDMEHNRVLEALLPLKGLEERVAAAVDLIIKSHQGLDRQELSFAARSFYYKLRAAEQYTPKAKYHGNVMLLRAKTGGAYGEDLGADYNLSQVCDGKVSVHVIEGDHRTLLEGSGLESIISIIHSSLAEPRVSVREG

As for `CCCc1nnc([C@H]2CC[C@@H](N(C)C(=O)c3ccc(-c4ccccc4)cc3)C2)o1` [Compound A2, biphenyl-4-carboxylic acid methyl-[(1R,3S)-3-(5-propyl-[1,3,4]oxadiazol-2-yl)-cyclopentyl]-amide], the IC50 is less than 300 nM.

`Cc1nnc([C@H]2CC[C@@H](N(C)C(=O)c3ccc(C#Cc4ccc(Cl)cc4)cc3)C2)o1` [Compound A21, 4-(4-chloro-phenylethynyl)-N-methyl-N-[(1 R,3S)-3-(5-methyl-[1,3,4]oxadiazol-2-yl)-cyclopentyl]-benzamide]: the IC50 is less than 300 nM.
